Our source for the IC50 values is US9957264B2 (Merck Sharp & Dohme Corp., priority 2013, dated 2018).

The target of experiment [1] is JAK1 (recombinant purified GST-tagged catalytic domain) (Homo sapiens (Human), UniProt P23458). Kind of experiment: Jak Biochemical HTRF Assay (JAK1). To be noted: [ATP] 31.8 μM. The method, boiled down: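 Read-out is the 665/615 nm time-resolved FRET ratio from Eu-pY20 antibody and streptavidin-Dylight 650 bound to phosphorylated biotin-peptide. Reactions ran 120 min at room temperature after ATP start. Inhibition normalized to untreated controls gave IC50 via 4-parameter fit.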
(TR-FRET usually uses a lanthanide donor and a delayed reading to cut background.)

Experiment [2] addresses JAK2 (recombinant purified GST-tagged catalytic domain) (Homo sapiens (Human), UniProt O60674). Kind of experiment: Jak Biochemical HTRF Assay (JAK2). The conditions noted are these: [ATP] 8.5 μM.

A word on the IC50: it is the concentration that gives 50% inhibition.

Sequence of JAK1 (recombinant purified GST-tagged catalytic domain) (P23458 875-1153): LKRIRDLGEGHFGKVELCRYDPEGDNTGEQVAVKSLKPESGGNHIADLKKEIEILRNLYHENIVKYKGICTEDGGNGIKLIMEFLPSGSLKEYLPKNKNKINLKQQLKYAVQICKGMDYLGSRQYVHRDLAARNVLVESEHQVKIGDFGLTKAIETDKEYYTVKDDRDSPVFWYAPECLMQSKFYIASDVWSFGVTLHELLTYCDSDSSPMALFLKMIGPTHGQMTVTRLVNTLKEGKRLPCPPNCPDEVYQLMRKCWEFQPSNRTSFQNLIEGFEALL
Sequence of JAK2 (recombinant purified GST-tagged catalytic domain) (O60674 849-1124): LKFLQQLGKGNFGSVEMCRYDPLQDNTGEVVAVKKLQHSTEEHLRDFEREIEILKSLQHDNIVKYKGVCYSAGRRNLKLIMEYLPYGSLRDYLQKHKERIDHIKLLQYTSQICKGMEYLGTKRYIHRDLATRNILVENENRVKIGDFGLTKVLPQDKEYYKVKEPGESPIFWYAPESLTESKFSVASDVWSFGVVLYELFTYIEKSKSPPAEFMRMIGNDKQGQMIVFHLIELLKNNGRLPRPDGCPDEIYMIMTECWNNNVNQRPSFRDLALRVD

Regarding `CSCCOC(=O)N1CCC(CC#N)(n2nc(Nc3ccc(S(=O)(=O)N(C)C)cc3)c3c(=O)[nH]ccc32)CC1` [Example 11-3, 2-(methylthio)ethyl 4-(cyanomethyl)-4-(3-((4-(N,N-dimethylsulfamoyl)phenyl)amino)-4-oxo-4,5-dihydro-1H-pyrazolo[4,3-c]pyridin-1-yl)piperidine-1-carboxylate], the IC50 was determined as 0.31 nM in experiment [1] and 1.09 nM in experiment [2].

Consider `COC(=O)N1CCC(CC#N)(n2nc(Nc3ccc(C(C)(O)C(F)(F)F)cc3)c3c(=O)[nH]ccc32)CC1` (single isomer, unassigned) [Example 5-141, (R or S)-methyl 4-(cyanomethyl)-4-(4-oxo-3-((4-(1,1,1-trifluoro-2-hydroxypropan-2-yl)phenyl)amino)-4,5-dihydro-1H-pyrazolo[4,3-c]pyridin-1-yl)piperidine-1-carboxylate], for which the figures for the IC50 in experiment [1] and in experiment [2] were 0.18 nM and 0.43 nM, respectively.

On to `CN(C)S(=O)(=O)c1ccc(Nc2nn(C3(CC#N)CCN(C(=O)Oc4ccccc4)CC3)c3cc[nH]c(=O)c23)cc1` [Example 10-2, phenyl 4-(cyanomethyl)-4-(3-((4-(N,N-dimethylsulfamoyl)phenyl)amino)-4-oxo-4,5-dihydro-1H-pyrazolo[4,3-c]pyridin-1-yl)piperidine-1-carboxylate], for which the half-inhibitory concentration (IC50) in experiment [1] came out at 0.19 nM; in experiment [2] it was 0.86 nM.

Regarding `CC(C)(C)OC(=O)N1CCC(CC#N)(n2nc(Nc3ccc(S(N)(=O)=O)cc3)c3c(=O)[nH]ccc32)CC1` [Example 5-4, tert-butyl 4-(cyanomethyl)-4-{4-oxo-3-[(4-sulfamoylphenyl)amino]-4,5-dihydro-1H-pyrazolo[4,3-c]pyridin-1-yl}piperidine-1-carboxylate], the IC50 in experiment [1] was found to be 0.12 nM; in experiment [2] it was 0.23 nM.

For the compound `CC(C)S(=O)(=O)c1ccc(Nc2nn(C3(CC#N)CCN(C(=O)C(C)(F)F)CC3)c3cc[nH]c(=O)c23)cc1` [Example 5-57, 2-(1-(2,2-difluoropropanoyl)-4-(3-((4-(isopropylsulfonyl)phenyl)amino)-4-oxo-4,5-dihydro-1H-pyrazolo[4,3-c]pyridin-1-yl)piperidin-4-yl)acetonitrile], the IC50 in experiment [1] was 0.08 nM; in experiment [2], 0.13 nM.

In the case of `COC(=O)[C@@H]1CC[C@@](CC#N)(n2nc(Nc3ccc(S(C)(=O)=O)cc3)c3c(=O)[nH]ccc32)CO1` (single isomer, unassigned) [Example 5-33, (2S,5S or 2R,5R)-methyl 5-(cyanomethyl)-5-(3-((4-(methylsulfonyl)phenyl)amino)-4-oxo-4,5-dihydro-1H-pyrazolo[4,3-c]pyridin-1-yl)tetrahydro-2H-pyran-2-carboxylate], the IC50 in experiment [1] was 0.03 nM; in experiment [2], 0.23 nM.

Turning to `Cc1cc(Nc2nn(C3(CC#N)CCN(c4cc(C(F)(F)F)ccn4)CC3)c3cc[nH]c(=O)c23)ccc1C(=O)N1CCC(F)(F)CC1` [Example 16-4, 2-(4-(3-(4-(4,4-difluoropiperidine-1-carbonyl)-3-methylphenylamino)-4-oxo-4,5-dihydropyrazolo[4,3-c]pyridin-1-yl)-1-(4-(trifluoromethyl)pyridin-2-yl)piperidin-4-yl)acetonitrile], the IC50 in experiment [1] and in experiment [2] was 2.01 nM in each case.

As to `CC(C)(C)OC(=O)[C@@H]1CC[C@@](CC#N)(n2nc(Nc3ccc(C(O)C(F)(F)F)cc3)c3c(=O)[nH]ccc32)CO1` (single isomer, unassigned) [Example 5-169, (2S,5S)-tert-butyl 5-(cyanomethyl)-5-(4-oxo-3-((4-((S or R)-2,2,2-trifluoro-1-hydroxyethyl)phenyl)amino)-4,5-dihydro-1H-pyrazolo [4,3-c]pyridin-1-yl)tetrahydro-2H-pyran-2-carboxylate], the IC50 turned out to be 0.1 nM in experiment [1] and 0.41 nM in experiment [2].

As to `CN1Cc2cc(Nc3nn([C@]4(CC#N)CC[C@@H](N5CC(F)C5)CC4)c4cc[nH]c(=O)c34)ccc2S1(=O)=O` [Example 18-32], the IC50 was determined as 0.04 nM in experiment [1] and 0.09 nM in experiment [2].
